Where two headings read alike, the source gives them in different places.
Columns and labels:
Type in all cases: cell-based
[1] = test system: T-Rex 293 cells having increased expression of estrogen receptor alpha protein; experiment: Cellular growth inhibition assay, T-Rex 293 cells, (+) doxycycline; details: T-Rex 293 cells with doxycycline (increased ERα expression), 72 hours, CellTiter-Glo, read-out: (+) Dox GI50
Outline: (§1)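 Cells of an inducible ERα-expressing T-Rex 293 clone are seeded in charcoal-dextran FBS medium with or without 3 ng/mL doxycycline, then treated after 24 h with compound dilutions (0.5% DMSO) for 72 h. Growth inhibition is measured by CellTiter-Glo luminescence and expressed as GI50.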

[2] = test system: T-Rex 293 cells lacking increased expression of estrogen receptor alpha protein; experiment: Cellular growth inhibition assay, T-Rex 293 cells, (−) doxycycline; details: T-Rex 293 cells without doxycycline (lacking increased ERα expression), 72 hours, CellTiter-Glo, read-out: (−) Dox GI50
Outline: as §1

[3] = test system: MCF7 cells (ATCC #HTB-22); experiment: Cellular growth inhibition assay, MCF7 cells purchased from ATCC; details: Table 8-A, MCF7 cells purchased from ATCC, six days, CellTiter-Glo, read-out: GI50
Outline: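 GI50 values come from a four-parameter fit of CellTiter-Glo 2.0 luminescence after six days of compound exposure at 37° C. Seeding density depended on the source: 225 cells/well for ECACC MCF7, 1,500 for ATCC. Medium was RPMI 1640 with 10% FBS and 0.2 U/ml insulin.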

Compound	GI50 ([1]; T-REx-293, 72 h, Table 7-A)	GI50 ([2]; T-REx-293, 72 h, Table 7-A)	GI50 ([3]; Homo sapiens, MCF7, 144 h)	GI50 ([1]; Table 7-A)	GI50 ([2]; Table 7-A)	GI50 [3]	GI50 ([1]; T-REx-293, 72 h, Table 7-B)	GI50 ([2]; T-REx-293, 72 h, Table 7-B)
Cc1sc2c(c1C)C(c1ccc(N3CCC(CN4CC(COc5ccc([C@H]6c7ccc(O)cc7CC[C@H]6c6ccccc6)cc5)C4)CC3)cc1)=N[C@@H](Cc1ncco1)c1nnc(C)n1-2 [III-92]	50 to 500 nM	50 to 500 nM	50 to 500 nM					
Cc1sc2c(c1C)C(c1ccc(N3CCC(CN4CCN(c5ccc([C@H]6c7ccc(O)cc7CC[C@H]6c6ccccc6)cc5)CC4)CC3)cc1)=N[C@H](Cc1ncco1)c1nnc(C)n1-2 [III-72]				500 to 2500 nM	500 to 2500 nM	500 to 2500 nM		
Cc1sc2c(c1C)C(c1ccc(N3CCC(O)(CN4CCN(c5ccc([C@H]6c7ccc(O)cc7CC[C@H]6c6ccc(F)cc6)cc5)CC4)CC3)cc1)=N[C@@H](Cc1ncco1)c1nnc(C)n1-2 [III-209]	< 50 nM	50 to 500 nM	50 to 500 nM					
Cc1sc2c(c1C)C(c1ccc(N3CCN(CC4CCN(c5ccc([C@@H]6c7ccc(O)cc7CC[C@@H]6c6ccccc6)cc5)CC4)CC3)cc1)=N[C@@H](Cc1ncco1)c1nnc(C)n1-2 [I-12, (5R,6S)-6-phenyl-5-(4-(4-((4-(4-((S)-2,3,9-trimethyl-6-(oxazol-2-ylmethyl)-6H-thieno[3,2-f][1,2,4]triazolo[4,3-a][1,4]diazepin-4-yl)phenyl)piperazin-1-yl)methyl)piperidin-1-yl)phenyl)-5,6,7,8-tetrahydronaphthalen-2-ol]	< 50 nM	500 to 2500 nM	< 50 nM					
Cc1sc2c(c1C)C(c1ccc(NCCN3CCN(CCOc4ccc([C@@H]5c6ccc(O)cc6CC[C@@H]5c5ccccc5)cc4)CC3)cc1)=N[C@@H](Cc1ncco1)c1nnc(C)n1-2 [III-103]	< 50 nM	50 to 500 nM	< 50 nM					
Cc1sc2c(c1C)C(c1ccc(N3CCC(O)(CN4CCC(c5ccc([C@@H]6c7ccc(O)cc7CC[C@@H]6c6ccccc6)cc5)CC4)CC3)cc1)=N[C@@H](C)c1nnc(C)n1-2 [III-25]	< 50 nM	500 to 2500 nM	< 50 nM					
COc1cc(N2CCN(CC3(O)CCN(c4ccc(C5=N[C@@H](C)c6nnc(C)n6-c6sc(C)c(C)c65)cc4)CC3)CC2)ccc1C1=C(c2ccccc2Cl)CCCc2cc(C(=O)O)ccc21 [IV-65]			50 to 500 nM				< 50 nM	500 to 2500 nM
Cc1sc2c(c1C)C(c1ccc(N3CCC(O)(CN4CCN(c5ccc([C@@H]6c7ccc(O)cc7CC[C@@H]6c6ccc(F)cc6)cc5)CC4)CC3)cc1)=N[C@@H](C)c1nnc(C)n1-2 [III-185]	< 50 nM	500 to 2500 nM	< 50 nM					
CC1=C(c2c(F)cc(F)cc2F)C(c2ccc(N3CCN(CC4(O)CCN(c5ccc(C6=N[C@@H](C)c7nnc(C)n7-c7sc(C)c(C)c76)cc5)CC4)CC3)cc2)Oc2ccc(O)cc21 (stereo partly drawn) [V-28]	< 50 nM	50 to 500 nM	< 50 nM					
Cc1sc2c(c1C)C(c1ccc(N3CCC(O)(CN4CCN(c5ccc([C@H]6c7ccc(C(=O)O)cc7CC[C@H]6c6ccc(F)cc6F)cc5)CC4)CC3)cc1)=NC(Cc1ncco1)c1nnc(C)n1-2 (stereo partly drawn) [III-213]	> 2500 nM	> 2500 nM	> 2500 nM					
Cc1sc2c(c1C)C(c1ccc(N3CC4(CC(CN5CCN(c6cc(F)c([C@H]7c8ccc(O)cc8CC[C@H]7c7ccc(F)cc7)c(F)c6)CC5)C4)C3)cc1)=N[C@@H](C)c1nnc(C)n1-2 [III-295]	500 to 2500 nM	500 to 2500 nM	50 to 500 nM					
Cc1sc2c(c1C)C(c1ccc(C3CCN(CC4(O)CCN(c5ccc([C@H]6c7ccc(O)cc7CC[C@H]6c6ccccc6)cc5)CC4)CC3)cc1)=N[C@@H](C)c1nnc(C)n1-2 [III-27]	< 50 nM	50 to 500 nM	50 to 500 nM					
Cc1sc2c(c1C)C(c1ccc(N3CCC(O)(CN4CCN(c5ccc(C6=C(c7ccccc7Cl)CCCc7cc(C(=O)O)ccc76)cc5F)CC4)CC3)cc1)=N[C@@H](C)c1nnc(C)n1-2 [IV-35]	< 50 nM	500 to 2500 nM	< 50 nM					
Cc1sc2c(c1C)C(c1ccc(N3CCC(N4CCN(CCOc5ccc([C@@H]6c7ccc(O)cc7CC[C@@H]6c6ccccc6)cc5)CC4)CC3)cc1)=NC(Cc1ncco1)c1nnc(C)n1-2 (stereo partly drawn) [III-35]	< 50 nM	50 to 500 nM	< 50 nM					
Cc1sc2c(c1C)C(c1ccc(N3CC(O)(CC4CCN(c5ccc([C@@H]6c7ccc(O)cc7CC[C@@H]6c6ccccc6)cc5)CC4)C3)cc1)=N[C@@H](C)c1nnc(C)n1-2 [III-159]	< 50 nM	< 50 nM	< 50 nM					
Cc1sc2c(c1C)C(c1ccc(N3CCC4(CCN(CCOc5ccc([C@@H]6c7ccc(O)cc7CC[C@@H]6c6ccccc6)cc5)CC4)CC3)cc1)=NC(Cc1ncco1)c1nnc(C)n1-2 (stereo partly drawn) [III-38]	< 50 nM	50 to 500 nM	< 50 nM					
Cc1sc2c(c1C)C(c1ccc(N3CC4(CCC(CN5CCC(c6ccc(C7=C(c8ccccc8Cl)CCCc8cc(C(=O)O)ccc87)cc6)CC5)CC4)C3)cc1)=N[C@@H](C)c1nnc(C)n1-2 [IV-56]	< 50 nM	50 to 500 nM	< 50 nM					
Cc1sc2c(c1C)C(c1ccc(N[C@H]3C[C@H]4CC[C@@H](C3)N4CCOc3ccc([C@@H]4c5ccc(O)cc5CC[C@@H]4c4ccccc4)cc3)cc1)=NC(Cc1ncco1)c1nnc(C)n1-2 (stereo partly drawn) [III-59]	< 50 nM	50 to 500 nM	50 to 500 nM					
Cc1sc2c(c1C)C(c1ccc(OCC3CN(CC4CCN(c5ccc([C@H]6c7ccc(O)cc7CC[C@H]6c6ccccc6)cc5)CC4)C3)cc1)=N[C@@H](C)c1nnc(C)n1-2 [III-69]	50 to 500 nM	50 to 500 nM	50 to 500 nM					
Cc1sc2c(c1C)C(c1ccc(N[C@H]3CCN(CCOc4ccc([C@@H]5c6ccc(O)cc6CC[C@@H]5c5ccccc5)cc4)C3)cc1)=NC(Cc1ncco1)c1nnc(C)n1-2 (stereo partly drawn) [III-28]	50 to 500 nM	50 to 500 nM	50 to 500 nM					
Cc1sc2c(c1C)C(c1ccc(N3CC4(CCC(CN5CCC(c6ccc(C7=C(c8ccccc8)CCCc8cc(O)ccc87)cc6)CC5)CC4)C3)cc1)=N[C@@H](C)c1nnc(C)n1-2 [IV-47]	< 50 nM	500 to 2500 nM	< 50 nM					
CCN(Cc1ccc(CCN2CC[C@@H](OCCOCCOc3ccc(C4=N[C@@H](C)c5nnc(C)n5-c5sc(C)c(C)c54)cc3)C2)cc1)c1cc(OC)ccc1C1CCc2cc(O)ccc2C1 (stereo partly drawn) [I-34b, (S)-6-(2-(ethyl(4-(2-((R)-3-(2-(2-(4-((S)-2,3,6,9-tetramethyl-6H-thieno[3,2-f][1,2,4]triazolo[4,3-a][1,4]diazepin-4-yl)phenoxy)ethoxy)ethoxy)pyrrolidin-1-yl)ethyl)benzyl)amino)-4-methoxyphenyl)-5,6,7,8-tetrahydronaphthalen-2-ol]				< 50 nM	500 to 2500 nM	50 to 500 nM		
Cc1sc2c(c1C)C(c1ccc(C3CCN(CC4(O)CCN(c5ccc([C@@H]6c7ccc(O)cc7CC[C@@H]6c6ccccc6)cc5)CC4)CC3)cc1)=N[C@@H](C)c1nnc(C)n1-2 [III-26]	< 50 nM	50 to 500 nM	50 to 500 nM					
Cc1sc2c(c1C)C(c1ccc(N3CC(CN4CC(CC5CN(c6ccc(C7=C(c8ccccc8)CCCc8cc(C(=O)O)ccc87)cc6)C5)C4)C3)cc1)=N[C@@H](C)c1nnc(C)n1-2 [IV-36]	< 50 nM	50 to 500 nM	< 50 nM					
Cc1sc2c(c1C)C(c1ccc(N3CC(CN4CCN(CC5CN(c6ccc([C@@H]7c8ccc(O)cc8CC[C@@H]7c7ccccc7)cc6)C5)CC4)C3)cc1)=N[C@@H](Cc1ncco1)c1nnc(C)n1-2 [III-162]	< 50 nM	50 to 500 nM	< 50 nM					

Reference: patent publication US12558428B2, “Heterobifunctional compounds and their use in treating disease” (Halda Therapeutics OpCo, Inc., priority 2024, dated 2026)
